According to patent US9637451B2, “Indole compound” (ASTELLAS PHARMA INC., priority 2014, dated 2017):

Legend:
human MT1 receptor = molecular target: T1, human MT1 receptor (Homo sapiens, UniProt P48039); test: Activation of human MT1 receptor in receptor-expressing cells, intracellular Ca2+ by FLIPR; type: cell-based; details: for EC50: HEK293EBNA1 cells stably expressing human MT1 and Gq/i chimeric G protein, Ca2+ FLIPR; for Emax: maximum reaction by ramelteon taken as 100%
T1 construct: expressed in transfected cells
T1 sequence (P48039 whole entry): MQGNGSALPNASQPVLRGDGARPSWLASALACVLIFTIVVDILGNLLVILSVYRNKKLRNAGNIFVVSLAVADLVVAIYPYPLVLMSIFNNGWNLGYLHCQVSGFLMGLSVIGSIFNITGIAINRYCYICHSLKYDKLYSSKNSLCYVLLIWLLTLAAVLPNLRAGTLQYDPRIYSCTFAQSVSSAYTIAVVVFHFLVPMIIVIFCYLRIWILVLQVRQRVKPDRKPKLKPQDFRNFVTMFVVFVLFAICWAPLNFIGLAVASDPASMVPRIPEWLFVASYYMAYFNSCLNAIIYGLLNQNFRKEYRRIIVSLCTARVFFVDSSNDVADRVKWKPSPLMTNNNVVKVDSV

[1] = Brain-to-plasma concentration ratio in rat after intravenous administration; type: in vivo; details: brain and plasma, 15 minutes after intravenous administration
Description: At 15 minutes after intravenously administration of the test compound to the rats, the plasma and brain were collected. A 50% acetonitrile solution and an acetonitrile including internal standard material were added to the collected plasma. The collected brain was added to a 2-fold volume of PBS and homogenized. A 50% acetonitrile solution and an acetonitrile including internal standard material were added to the brain homogenate. The sample was centrifuged at 4° C. and 2150×g for 10 minutes, the supernatant was measured by LC-MS/MS, and the total concentration of the test compound in the brain (Cbrain) and the total concentration of the test compound in the plasma (Cplasma,t) were obtained. The brain-to-plasma concentrations ratio (Kp,brain) was calculated by the following equation.
(§1) The Kp,uu,CSF values and the Kp,brain values of ramelteon and some Example compounds of the present invention are shown in Table 4. Ex represents Example No. of the test compound. Unless otherwise specified, the Kp,uu,CSF was calculated using the fp values determined by an ultracentrifugation method. Further, N.T. represents Not Tested.

[2] = CSF-to-plasma unbound concentration ratio in rat after intravenous administration; type: in vivo; details: CSF and plasma (unbound), iv, 15 minutes after intravenous administration
Description: A test compound (100 μg/mL, 50% acetonitrile solution) at 1% (v/v) with respect to the amount of the plasma was added to rat plasma, and dispensed to a sample for a supernatant and a sample for the plasma. The sample for a supernatant was ultracentrifuged at 436,000×g and 37° C. for 140 minutes, and the sample for the plasma was incubated at 37° C. for 140 minutes.
After 140 minutes, the sample for a supernatant after the ultracentrifugation and the sample for the plasma were taken, and mixed with the blank plasma or the blank supernatant, respectively. Acetonitrile including an internal standard material was added to each of the samples with the removal of protein, and after the centrifugation at 2150×g and 4° C. for 10 minutes the supernatant was injected into LC-MS/MS.
The unbound fraction in the plasma was calculated by the following equation.
To the plasma of a rat was added a test compound (0.2 mM, 50% acetonitrile solution) in an amount corresponding to 1% (v/v) of the plasma amount, and 200 μL of obtained plasma sample was filled into a plasma chamber of a RED device insert. A buffer chamber was filled with 350 μL of PBS, followed by performing equilibrium dialysis by stirring in a CO2 incubator at 37° C. for 16 hours. The sample after the completion of the equilibrium dialysis was recovered and the volume of the plasma sample was measured. To the plasma sample after the completion of the equilibrium dialysis were added PBS, a 20 mM ammonium formate buffer, and acetonitrile including an internal standard material. Similarly, to the PBS sample after the completion of the equilibrium dialysis was added a blank plasma, a 20 mM ammonium formate buffer, and acetonitrile including an internal standard material. This sample was left to stand at 4° C. for 30 minutes and then centrifuged 1500×g for 10 minutes, and the supernatant was measured by LC-MS/MS. The unbound fraction in the plasma was calculated by the following equation. fp=Cf/{(Cp−Cf)(V/V0)+Cf}
At 15 minutes after intravenously administration of the test compound to the rats, the plasma and CSF were collected. A 50% acetonitrile solution and an acetonitrile including internal standard material were added to the collected plasma or CSF. After centrifuging this sample at 4° C. and 2150×g for 10 minutes, the supernatant was measured by LC-MS/MS, and the total concentration of the test compound in the plasma (Cplasma,t) and the concentration of the test compound in CSF (CCSF) were obtained. The unbound concentration in the plasma (Cplasma,u) of the test compound and the CSF-to-plasma unbound concentration ratio (Kp,uu,CSF) of the test compound was calculated by the following equation.
as §1
(Ramelteon represents the values of Kp,uu,CSF after 10 minutes after the intravenous administration. Further, the Kp,uu,CSF of Examples 37 and 38 was calculated using the fp values determined by an equilibrium dialysis method. In addition, N.D. denotes the concentration of the test compound in CSF that is no higher than the detection limit.)

human MT2 receptor = molecular target: T2, human MT2 receptor (Homo sapiens, UniProt P49286); test: Activation of human MT2 receptor in receptor-expressing cells, intracellular Ca2+ by FLIPR; type: cell-based; details: for EC50: HEK293 cells stably expressing human MT2 and Gq/i chimeric G protein, Ca2+ FLIPR; for Emax: maximum reaction by ramelteon taken as 100%
T2 construct: expressed in transfected cells
T2 sequence (P49286 1-362): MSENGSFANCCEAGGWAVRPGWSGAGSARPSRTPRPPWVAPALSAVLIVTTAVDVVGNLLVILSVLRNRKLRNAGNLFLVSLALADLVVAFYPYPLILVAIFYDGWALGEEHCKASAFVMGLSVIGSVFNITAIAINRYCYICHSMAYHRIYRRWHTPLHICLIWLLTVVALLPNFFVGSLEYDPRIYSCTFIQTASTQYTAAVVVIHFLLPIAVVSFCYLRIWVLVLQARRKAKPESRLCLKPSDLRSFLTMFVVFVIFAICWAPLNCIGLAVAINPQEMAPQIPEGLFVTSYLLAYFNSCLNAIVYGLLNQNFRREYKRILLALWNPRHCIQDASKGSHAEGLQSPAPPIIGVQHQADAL

[3] = tested on: isolated urethra in a rat; details: Patent Document 5; cited from earlier work
[4] = fp by ultracentrifugation method
[5] = fp by equilibrium dialysis method

| Structure (SMILES) | EC50 (human MT1 receptor) [µM] | Emax (human MT1 receptor) [%] | Kp at 0.25 h [1] | Kp uu at 0.25 h [2, 4] | EC50 (human MT2 receptor) [µM] | Emax (human MT2 receptor) [%] | Kp uu at 0.25 h [2, 5] | contraction of isolated urethra, increase of urethral pressure [3] |
| --- | --- | --- | --- | --- | --- | --- | --- | --- |
| CC(=O)NCCc1c[nH]c2ccc(OCCn3ccc(C(F)(F)F)n3)cc12 [Example 4, N-[2-(5-{2-[3-(trifluoromethyl)-1H-pyrazol-1-yl]ethoxy}-1H-indol-3-yl)ethyl]acetamide] | 0.018 | 102 | 0.29 | 0.11 | 0.033 | 102 | – | – |
| COc1ccc(OCCOc2ccc3[nH]cc(CCNC(C)=O)c3c2)cn1 [Example 5, N-[2-(5-{2-[(6-methoxypyridin-3-yl)oxy]ethoxy}-1H-indol-3-yl)ethyl]acetamide] | 0.013 | 89 | 0.089 | 0.1 | 0.15 | 48 | – | – |
| CC(=O)NCCc1c(C)[nH]c2ccc(OCCOc3ccn(C)n3)cc12 [Example 7, N-[2-(2-methyl-5-{2-[(1-methyl-1H-pyrazol-3-yl)oxy]ethoxy}-1H-indol-3-yl)ethyl]acetamide] | 0.018 | 90 | 0.03 | 0.14 | 0.022 | 125 | – | – |
| CCC(=O)NCCc1c[nH]c2ccc(OCCOc3ccn(C)n3)cc12 [Example 8, N-[2-(5-{2-[(1-methyl-1H-pyrazol-3-yl)oxy]ethoxy}-1H-indol-3-yl)ethyl]propanamide] | 0.0091 | 93 | 0.04 | 0.08 | 0.012 | 107 | – | – |
| CNC(=O)NCCc1c(C)[nH]c2ccc(OCCOc3ccn(C)n3)cc12 [Example 10, 1-methyl-3-[2-(2-methyl-5-{2-[(1-methyl-1H-pyrazol-3-yl)oxy]ethoxy}-1H-indol-3-yl)ethyl]urea] | 0.0083 | 95 | 0.02 | 0.07 | 0.021 | 117 | – | – |
| CC(=O)NCCc1c(C)[nH]c2ccc(OCCOc3ccnc(C)c3)cc12 [Example 18, N-[2-(2-methyl-5-{2-[(2-methylpyridin-4-yl)oxy]ethoxy}-1H-indol-3-yl)ethyl]acetamide] | 0.0077 | 89 | 0.03 | 0.11 | 0.021 | 123 | – | – |
| CNC(=O)NCCc1c[nH]c2ccc(OCCOc3ccc(OC)nc3)cc12 [Example 23, 1-[2-(5-{2-[(6-methoxypyridin-3-yl)oxy]ethoxy}-1H-indol-3-yl)ethyl]-3-methylurea] | 0.021 | 87 | 0.03 | 0.04 | 0.054 | 68 | – | – |
| CC(=O)NC[C@H](C)c1c[nH]c2cc(F)c(OCCOc3ccn(C)n3)cc12 [Example 37, N-[(2R)-2-(6-fluoro-5-{2-[(1-methyl-1H-pyrazol-3-yl)oxy]ethoxy}-1H-indol-3-yl)propyl]acetamide] | 0.0021 | 105 | 0.01 | – | 0.0071 | 104 | 0.08 | – |
| CC(=O)NC[C@H](C)c1c[nH]c2cc(Cl)c(OCCOc3ccn(C)n3)cc12 [Example 38, N-[(2R)-2-(6-chloro-5-{2-[(1-methyl-1H-pyrazol-3-yl)oxy]ethoxy}-1H-indol-3-yl)propyl]acetamide] | 0.002 | 97 | 0.02 | – | 0.013 | 105 | 0.08 | – |
| COc1ccc2[nH]cc(CCNC(C)=O)c2c1 [Melatonin, melatonin] | – | – | – | – | – | – | – | contract the isolated urethra in a rat to increase the urethral pressure of the rat |
| COc1cc2c([C@@H](C)CNC(C)=O)c[nH]c2cc1Cl [TIK-301] | – | – | – | – | – | – | – | contract the isolated urethra in a rat to increase the urethral pressure of the rat |
| COc1ccc2cccc(CCNC(C)=O)c2c1 [agomelatine] | – | – | – | – | – | – | – | contract the isolated urethra in a rat to increase the urethral pressure of the rat |
| CCC(=O)NC[C@@H]1C[C@H]1c1cccc2c1CCO2 [tasimelteon] | – | – | – | – | – | – | – | contract the isolated urethra in a rat to increase the urethral pressure of the rat |
